From patent publication USRE47739E1, “2-(pyridin-2-ylamino)-pyrido[2,3-D]pyrimidin-7-ones” (Warner-Lambert Company LLC, priority 2002, dated 2019)
pIC50: −log10 of the molar value. Counter-ions that a name gives are not always drawn.

Legend:
Cdk2/Cyclin A = Cdk2/Cyclin A (Homo sapiens, UniProt P24941); assay: Assay for Inhibition of Cdk2/Cyclin A; format: biochemical; conditions: 12 mM ATP (so in the source), retinoblastoma protein substrate, 25° C., 15 minutes
Protocol: (§1) The assays were carried out as described below.
Assay for Inhibition of Cdk2/Cyclin A
Cdk2 enzyme assays for IC50 determinations and kinetic evaluation are performed as follows. 96-well filter plates (Millipore MADVN6550) are used. […] All components except the ATP are added to the wells, and the plate is placed on a plate mixer for 2 minutes. The reaction is initiated by addition of [^32P]ATP, and the plate is incubated at 25° C. for 15 minutes. The reaction is terminated by addition of 0.1 mL 20% TCA. The plate is kept at 4° C. for at least 1 hour to allow the substrate to precipitate. The wells are then washed five times with 0.2 mL 10% TCA, and ^32P incorporation is determined with a beta plate counter (Wallac Inc., Gaithersburg, Md.).

[1] = target: FGF receptor (FGFr) tyrosine kinase (Homo sapiens, UniProt P11362); assay: Assay for Inhibition of FGFr; format: biochemical; conditions: 50 μM ATP, Poly (4:1) glutamate-tyrosine substrate, 25° C.
Sequence of FGF receptor (FGFr) tyrosine kinase (P11362 22-822): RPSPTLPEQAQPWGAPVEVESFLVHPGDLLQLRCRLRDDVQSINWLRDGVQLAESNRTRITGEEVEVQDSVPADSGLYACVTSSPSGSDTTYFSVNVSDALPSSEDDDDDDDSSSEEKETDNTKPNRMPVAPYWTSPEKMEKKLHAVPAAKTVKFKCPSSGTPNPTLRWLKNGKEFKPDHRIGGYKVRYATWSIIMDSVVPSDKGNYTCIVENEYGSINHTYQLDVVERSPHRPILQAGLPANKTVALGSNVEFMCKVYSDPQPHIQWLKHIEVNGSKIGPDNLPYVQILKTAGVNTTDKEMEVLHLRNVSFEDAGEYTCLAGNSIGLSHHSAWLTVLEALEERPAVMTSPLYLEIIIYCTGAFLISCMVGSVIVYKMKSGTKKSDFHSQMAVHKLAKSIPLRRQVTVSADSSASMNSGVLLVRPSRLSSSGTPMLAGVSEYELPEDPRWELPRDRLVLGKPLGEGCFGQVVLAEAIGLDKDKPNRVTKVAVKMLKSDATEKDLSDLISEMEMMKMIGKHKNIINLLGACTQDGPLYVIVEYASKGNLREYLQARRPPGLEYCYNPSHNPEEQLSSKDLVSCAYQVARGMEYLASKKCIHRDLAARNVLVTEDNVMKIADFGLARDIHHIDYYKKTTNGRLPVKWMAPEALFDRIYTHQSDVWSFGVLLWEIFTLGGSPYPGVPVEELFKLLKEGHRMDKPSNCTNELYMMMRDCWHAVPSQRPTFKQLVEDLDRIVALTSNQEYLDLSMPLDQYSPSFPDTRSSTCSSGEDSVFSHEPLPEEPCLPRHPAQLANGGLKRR
Protocol: as §1
Assay for Inhibition of FGFr
For FGF receptor (FGFr) tyrosine kinase assays 96-well plates (100 μL/incubation/well), and conditions are optimized to measure the incorporation of ^32P from [γ^32P]ATP into a glutamate-tyrosine co-polymer substrate. Briefly, to each well is added 82.5 μL incubation buffer B (25 mM Hepes (pH 7.0), 150 mM NaCl, 0.1% Triton X-100, 0.2 mM PMSF, 0.2 mM Na3VO4, 10 mM MnCl2) and 750 μg/mL Poly (4:1) glutamate-tyrosine followed by 2.5 μL of the test compound in buffer B and 5 μL of a 7.5 μg/μL FGFr solution to initiate the reaction. Following a 10-minute incubation at 25° C., […] [γ^32P]ATP (0.4 μCi plus 50 μM ATP) is added to each well, and samples are incubated for an additional 10 minutes at 25° C. The reaction is terminated by the addition of 100 μL 30% trichloroacetic acid (TCA) containing 20 mM sodium pyrophosphate and precipitation of material onto glass fiber mats (Wallac). […] Nonspecific activity is defined as radioactivity retained on the filters following incubation of samples with buffer alone (no enzyme). Specific enzymatic activity (enzyme plus buffer) is defined as total activity minus nonspecific activity.

Cdk4/Cyclin D = Cdk4/Cyclin D (Homo sapiens, UniProt P11802); assay: Assay for Inhibition of Cdk4/Cyclin D; format: biochemical; conditions: 25 μM ATP, retinoblastoma protein substrate, 25° C., 15 minutes
Sequence of Cdk4/Cyclin D (P11802 whole entry, species assumed): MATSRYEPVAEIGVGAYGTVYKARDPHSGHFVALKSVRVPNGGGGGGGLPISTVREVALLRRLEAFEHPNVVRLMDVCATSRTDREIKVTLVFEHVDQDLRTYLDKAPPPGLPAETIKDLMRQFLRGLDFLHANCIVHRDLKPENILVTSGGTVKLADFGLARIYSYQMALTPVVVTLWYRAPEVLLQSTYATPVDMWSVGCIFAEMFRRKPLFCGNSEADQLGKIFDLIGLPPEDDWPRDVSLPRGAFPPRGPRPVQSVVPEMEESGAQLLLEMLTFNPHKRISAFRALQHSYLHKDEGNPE
Sequence of Cdk4/Cyclin D (P24385 whole entry partner, species assumed): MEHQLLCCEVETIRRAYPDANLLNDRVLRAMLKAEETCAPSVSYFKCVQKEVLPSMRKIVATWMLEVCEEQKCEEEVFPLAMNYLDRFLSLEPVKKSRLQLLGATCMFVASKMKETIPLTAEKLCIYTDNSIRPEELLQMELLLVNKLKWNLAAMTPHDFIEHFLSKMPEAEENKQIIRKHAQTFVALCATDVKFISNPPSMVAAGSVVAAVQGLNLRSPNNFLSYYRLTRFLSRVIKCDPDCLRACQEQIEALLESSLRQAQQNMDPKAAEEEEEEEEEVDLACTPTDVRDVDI
Protocol: as §1
Assay for Inhibition of Cdk4/Cyclin D
The Cdk4 enzyme assay for IC50 determination and kinetic evaluation is performed as follows. 96-well filter plates (Millipore MADVN6550) are used. […] Buffer A containing excess EDTA was used to determine the level of background ^32P in the absence of enzyme activity. All components except the ATP are added to the wells, and the plate is placed on a plate mixer for 2 minutes. The reaction is started by adding [^32P]ATP, and the plate is incubated at 25° C. for 15 minutes. The reaction is terminated by addition of 0.1 mL 20% trichloroacetic acid (TCA). The plate is kept at 4° C. for at least 1 hour to allow the substrate to precipitate. The wells are then washed five times with 0.2 mL 10% TCA, and ^32P incorporation is determined with a beta plate counter (Wallac Inc., Gaithersburg, Md.).

Molecule: O=c1ccc2cnc(Nc3ccccn3)nc2n1C1CCCC1 [Example 1, 8-Cyclopentyl-2-(pyridin-2-ylamino)-8H-pyrido[2,3-d]pyrimidin-7-one]
- pIC50 (Cdk2/Cyclin A): 5.30
- pIC50 [1]: < 5.30
- pIC50 (Cdk4/Cyclin D): 6.84

Molecule: O=c1c(Cc2ccccc2)cc2cnc(Nc3ccc(N4CCNCC4)cn3)nc2n1C1CCCC1 [Example 24, 6-Benzyl-8-cyclopentyl-2-(5-piperazin-1-yl-pyridin-2-ylamino)-8H-pyrido[2,3-d]pyrimidin-7-one hydrochloride]
- pIC50 (Cdk2/Cyclin A): < 5.30
- pIC50 [1]: < 5.30
- pIC50 (Cdk4/Cyclin D): 8.30

Molecule: Cc1cc2cnc(Nc3ccc(N4CCNCC4)cn3)nc2n(C2CCCC2)c1=O [Example 20, 8-Cyclopentyl-6-methyl-2-(5-piperazin-1-yl-pyridin-2-ylamino)-8H-pyrido[2,3-d]pyrimidin-7-one hydrochloride]
- pIC50 (Cdk2/Cyclin A): 5.39
- pIC50 [1]: 5.79
- pIC50 (Cdk4/Cyclin D): 7.57

Molecule: CC(=O)c1cc2cnc(Nc3ccc(N4CCNCC4)cn3)nc2n(C2CCCC2)c1=O (as salt: hydrochloride) [Example 33, 6-Acetyl-8-cyclopentyl-2-(5-piperazin-1-yl-pyridin-2-ylamino)-8H-pyrido[2.3-d]pyrimidin-7-one hydrochloride]
- melting point: > 300 °C

Molecule: O=c1c(Br)cc2cnc(Nc3ccc(N4CCNCC4)cn3)nc2n1C1CCCC1 [Example 3, 6-Bromo-8-cyclopentyl-2-(5-piperazin-1-yl-pyridin-2-ylamino)-8H-pyrido [2,3-d]pyrimidin-7-one hydrochloride]
- pIC50 (Cdk2/Cyclin A): 5.22
- pIC50 [1]: 5.99
- pIC50 (Cdk4/Cyclin D): 7.80

Molecule: 8-Cyclopentyl-6-methoxymethyl-2-(5-piperazin-1-yl-pyridin-2-ylamino)-8H-pyrido[2,3-d]pyrimidin-7-one [Example 120]
- pIC50 (Cdk2/Cyclin A): 5.42
- pIC50 [1]: 5.61
- pIC50 (Cdk4/Cyclin D): 7.89

Molecule: Cc1c(Br)c(=O)n(C2CCCC2)c2nc(Nc3ccc(N4CCN(C)CC4)cn3)ncc12 [Example 70, 6-Bromo-8-cyclopentyl-5-methyl-2-[5-(4-methyl-piperazin-1-yl)-pyridin-2-ylamino]-8H-pyrido[2,3-d]pyrimidin-7-one]
- melting point: 278 to 280 °C (dec.)
- pIC50 [1]: < 5.30
- pIC50 (Cdk4/Cyclin D): 6.87

Molecule: CCc1cc2cnc(Nc3ccc(N4CCC(O)CC4)cn3)nc2n(C2CCCC2)c1=O [Example 51, 8-Cyclopentyl-6-ethyl-2-(4-hydroxy-3,4,5,6-tetrahydro-2H-[1,3′]bipyridinyl-6′-ylamino)-8H-pyrido [2,3-d]pyrimidin-7-one]
- pIC50 (Cdk2/Cyclin A): < 5.30
- pIC50 (Cdk4/Cyclin D): 6.87

Molecule: Cc1c(Br)c(=O)n(C2CCCC2)c2nc(Nc3cccc(N)n3)ncc12 [Example 66, 2-(6-amino-pyridin-2-ylamino)-6-bromo-8-cyclopentyl-5-methyl-8H-pyrido[2,3-d]pyrimidin-7-one]
- pIC50 (Cdk2/Cyclin A): < 5.30
- pIC50 (Cdk4/Cyclin D): 6.12

Molecule: O=c1ccc2cnc(Nc3ccc(N4CCNCC4)cn3)nc2n1C1CCCC1 [Example 59, 8-cyclopentyl-2-(5-piperazin-1-yl-pyridin-2-ylamino)-8H-pyrido[2,3-d]pyrimidin-7-one]
- pIC50 (Cdk2/Cyclin A): 5.60
- pIC50 [1]: 5.82
- pIC50 (Cdk4/Cyclin D): 7.82

Molecule: O=c1ccc2cnc(Nc3ccccc3)nc2n1C1CCCC1 [1′, reference compound]
- pIC50 (Cdk2/Cyclin A): 7.68

Molecule: O=c1ccc2cnc(Nc3ccc(N4CCNCC4)cn3)nc2n1C1CCCC1 (as salt: hydrochloride) [Example 59, 8-cyclopentyl-2-(5-piperazin-1-yl-pyridin-2-ylamino)-8H-pyrido[2,3-d]pyrimidin-7-one]
- melting point: 213 to 215 °C

Molecule: O=c1ccc2cnc(Nc3ccc(N4CCNCC4)cn3)nc2n1C1CCCCC1 (as salt: hydrochloride) [Example 61, 8-cyclohexyl-2-(5-piperazin-1-yl-pyridin-2-ylamino)-8H-pyrido[2,3-d]pyrimidin-7-one]
- melting point: 228 to 230 °C

Molecule: O=c1ccc2cnc(Nc3ccc(N4CCNCC4)cn3)nc2n1C1CCCCC1 [Example 61, 8-cyclohexyl-2-(5-piperazin-1-yl-pyridin-2-ylamino)-8H-pyrido[2,3-d]pyrimidin-7-one]
- pIC50 (Cdk2/Cyclin A): 6.08
- pIC50 [1]: 5.86
- pIC50 (Cdk4/Cyclin D): 7.89

Molecule: COCCN(CCOC)c1ccc(Nc2ncc3c(C)c(C(C)=O)c(=O)n(C4CCCC4)c3n2)nc1 [Example 55, 6-Acetyl-2-{5-[bis-(2-methoxy-ethyl)-amino]-pyridin-2-ylamino}-8-cyclopentyl-5-methyl-8H-pyrido[2,3-d]pyrimidin-7-one]
- pIC50 (Cdk2/Cyclin A): < 5.30
- melting point: 138 °C
- pIC50 [1]: < 5.30
- pIC50 (Cdk4/Cyclin D): 7.62

Molecule: Cc1c(Br)c(=O)n(C2CCCC2)c2nc(Nc3ccccn3)ncc12 [Example 37, 6-bromo-8-cyclopentyl-5-methyl-2-(pyridin-2-ylamino)-8H-pyrido[2,3-d]pyrimidin-7-one]
- melting point: 267 to 268 °C
- pIC50 [1]: < 5.30
- pIC50 (Cdk4/Cyclin D): < 5.30

Molecule: COCCN(CCOC)c1ccc(Nc2ncc3c(C)c(Br)c(=O)n(C4CCCC4)c3n2)nc1 [Example 54, 2-{5-[Bis-(2-methoxy-ethyl)-amino]-pyridin-2-ylamino}-6-bromo-8-cyclopentyl-5-methyl-8H-pyrido[2,3-d]pyrimidin-7-one]
- melting point: 94 to 95 °C
- pIC50 [1]: < 5.30
- pIC50 (Cdk4/Cyclin D): 5.96

Molecule: CC(=O)c1c(C)c2cnc(Nc3ccccn3)nc2n(C2CCCC2)c1=O [Example 82, 6-Acetyl-8-cyclopentyl-5-methyl-2-(pyridin-2-ylamino)-8H-pyrido[2,3-d]pyrimindin-7-one]
- pIC50 [1]: < 5.30
- pIC50 (Cdk4/Cyclin D): 6.36

Molecule: COCCOCc1cc2cnc(Nc3ccc(N4CCNCC4)cn3)nc2n(C2CCCC2)c1=O [Example 112, 8-Cyclopentyl-6-(2-methoxy-ethoxymethyl)-2-(5-piperazin-1-yl-pyridin-2-ylamino)-8H-pyrido[2,3-d]pyrimidin-7-one]
- pIC50 [1]: < 5.30
- pIC50 (Cdk4/Cyclin D): 7.51

Molecule: CC(=O)c1cc2cnc(Nc3ccc(N4CCNCC4)cn3)nc2n(C2CCCC2)c1=O [Example 33, 6-Acetyl-8-cyclopentyl-2-(5-piperazin-1-yl-pyridin-2-ylamino)-8H-pyrido[2.3-d]pyrimidin-7-one hydrochloride]
- pIC50 [1]: < 5.30
- pIC50 (Cdk4/Cyclin D): 6.91

Molecule: O=c1c(Br)cc2cnc(Nc3ccccn3)nc2n1C1CCCC1 [Example 38, 6-Bromo-8-cyclopentyl-2-(Pyridin-2-ylamino)-8H-pyrido[2,3-]pyrimidin-7-one]
- pIC50 [1]: < 5.30
- pIC50 (Cdk4/Cyclin D): 6.02

Molecule: CCOCc1cc2cnc(Nc3ccc(N4CCCCC4)cn3)nc2n(C2CCCC2)c1=O [Example 124, 8-Cyclopentyl-6-ethoxymethyl-2-(3,4,5,6-tetrahydro-2H-[1,3]bipyridinyl-6′-ylamino)-8H-pyrido[2,3-d]pyrimidin-7-one]
- pIC50 (Cdk2/Cyclin A): < 5.30
- pIC50 (Cdk4/Cyclin D): 6.26

Molecule: CCOCc1cc2cnc(Nc3ccc(N4CCOCC4)cn3)nc2n(C2CCCC2)c1=O [Example 125, 8-Cyclopentyl-6-ethoxymethyl-2-(5-morpholin-4-yl-pyridin-2-ylamino)-8H-pyrido[2,3-d]pyrimidin-7-one]
- pIC50 (Cdk2/Cyclin A): < 5.30
- pIC50 [1]: < 5.30
- pIC50 (Cdk4/Cyclin D): 7.74

Molecule: Cc1c(Br)c(=O)n(C2CCCC2)c2nc(Nc3ccc(N4CC(C)NC(C)C4)cn3)ncc12 (stereo not shown) [Example 93, 6-Bromo-8-cyclopentyl-2-[5-(3,5-dimethyl-piperazin-1-yl)-pyridin-2-ylamino]-5-methyl-8H-pyrido[2,3-d]pyrimidin-7-one]
- pIC50 [1]: < 5.30
- pIC50 (Cdk4/Cyclin D): 7.20

Molecule: O=c1ccc2cnc(Nc3ccc(N4CCNCC4)cn3)nc2n1C1CC1 (as salt: hydrochloride) [Example 64, 8-cyclopropyl-2-(5-piperazin-1-yl-pyridin-2-ylamino)-8H-pyrido[2,3-d]pyrimidin-7-one]
- melting point: > 300 °C

Molecule: Nc1cccc(Nc2ncc3cc(Br)c(=O)n(C4CCCC4)c3n2)n1 [Example 65, 6-Bromo-8-cyclopentyl-2-(pyridin-2,6-yldiamino)-8H-pyrido[2,3-d]pyrimidin-7-one]
- pIC50 (Cdk2/Cyclin A): 5.48
- melting point: > 300 °C
- pIC50 (Cdk4/Cyclin D): 6.37
